Measured values reported in paper PMC11234063, “Eugenol and lidocaine inhibit voltage-gated Na^+ channels from dorsal root ganglion neurons with different mechanisms” (Frontiers in Pharmacology, 2024).
“And” between values parts separate entries of the source, which are not always exact repeats. Identical values can stand only once. Like-named read-outs stand apart in the source and are kept apart here.

What was measured:
[1] = test system: total INa (VGSCs naturally expressed on dorsal root ganglion sensory neurons); experiment: Dose–response inhibition of total INa peak, whole-cell patch clamp; assay type: cell-based, rat
[2] = test system: TTX-R INa (VGSCs of DRG neurons); assay type: cell-based, rat
[3] = test system: total INa (VGSCs of DRG neurons); experiment: Voltage dependence of Na+ conductance activation (I-V and G-V curves), total INa; assay type: cell-based, rat; conditions: EUG 2 mM, LID 1 mM
[4] = test system: TTX-R INa (VGSCs of DRG neurons); experiment: Voltage dependence of Na+ conductance activation (I-V and G-V curves), TTX-R INa; assay type: cell-based, rat; conditions: EUG 2 mM, LID 1 mM
[5] = test system: total INa (VGSCs of DRG neurons); experiment: Steady-state inactivation, 100-ms conditioning pre-pulses, total INa; assay type: cell-based, rat; conditions: EUG 2 mM, LID 1 mM
[6] = test system: TTX-R INa (VGSCs of DRG neurons); assay type: cell-based, rat; conditions: EUG 2 mM, LID 1 mM
[7] = test system: total INa (VGSCs of DRG neurons); experiment: Inhibition in depolarization time series at 2 and 5 Hz, total INa; assay type: cell-based, rat; conditions: EUG 2 mM, LID 1 mM
[8] = test system: TTX-R INa (VGSCs of DRG neurons); assay type: cell-based, rat; conditions: EUG 2 mM, LID 1 mM; remark: listed apart in the source
[9] = test system: total INa (VGSCs of DRG neurons); experiment: Slow inactivation entry, three-pulse protocol, total INa; assay type: cell-based, rat
[10] = test system: TTX-R INa (VGSCs of DRG neurons); experiment: Slow inactivation entry, three-pulse protocol, TTX-R INa; assay type: cell-based, rat
[11] = test system: persistent total INa (DRG neurons); experiment: Persistent total INa at the end of 50-ms depolarizing pulses; assay type: cell-based, rat; conditions: EUG 2 mM, LID 1 mM
[12] = test system: total INa (VGSCs of DRG neurons); experiment: INa inactivation time constants during test pulse, total INa; assay type: cell-based, rat
[13] = test system: TTX-R INa (VGSCs of DRG neurons); assay type: cell-based, rat; remark: listed apart in the source
VGSCs = test system: VGSCs; set-up: method as in Clarkson et al., 1988; Sheets et al., 2010; conditions: 10-s conditioning pulse; ref Clarkson et al., 1988; Sheets et al., 2010; cited from earlier work
[14] = test system: total INa (VGSCs of DRG neurons); conditions: EUG 2 mM, LID 1 mM
[15] = individual cells, during exposure to EUG 2 mM or LID 1 mM

Structure (SMILES): CCN(CC)CC(=O)Nc1c(C)cccc1C [LID, lidocaine]
- Pre-inhibition of total INa ([1]; LID at 0.5 mM): 25%
- Reversibility of inhibition after drug washout ([1]; total INa): fully reversible
- Dose response curves' data, Average (fractional current), LID (EUG 1.3 mM) ([1]; total INa, LID 0.1 mM in the presence of EUG 1.3 mM): 0.98
- Dose response curves' data, Average (fractional current), LID (EUG 1.3 mM) ([1]; total INa, LID 0.3 mM in the presence of EUG 1.3 mM): 0.63
- Dose response curves' data, Average (fractional current), LID (EUG 1.3 mM) ([1]; total INa, LID 1 mM in the presence of EUG 1.3 mM): 0.45
- Dose response curves' data, Average (fractional current), LID (EUG 1.3 mM) ([1]; total INa, LID 3 mM in the presence of EUG 1.3 mM): 0.19
- Dose response curves' data, Average (fractional current), LID (EUG 1.3 mM) ([1]; total INa, LID 10 mM in the presence of EUG 1.3 mM): 0.08
- Hill coefficient ([1]; total INa, drug alone): 1 and 1.02 ± 0.169
- Dose response curves' data, Average (fractional current) ([1]; total INa, drug at 0.001 mM): 1.00
- Dose response curves' data, Average (fractional current) ([1]; total INa, drug at 0.03 mM): 0.95
- Dose response curves' data, Average (fractional current) ([1]; total INa, drug at 0.1 mM): 0.89
- Dose response curves' data, Average (fractional current) ([1]; total INa, drug at 0.3 mM): 0.79
- Dose response curves' data, Average (fractional current) ([1]; total INa, drug at 1 mM): 0.67
- Dose response curves' data, Average (fractional current) ([1]; total INa, drug at 3 mM): 0.29
- Dose response curves' data, Average (fractional current) ([1]; total INa, drug at 10 mM): 0.09
- IC50 ([1]; total INa, holding −110 mV, test +20 mV, drug alone, read-out: IC50): 1420 ± 169 µM
- Time series of INa blockade, Average (normalized current) ([1]; total INa, time 15 sec, drug exposure): 0.63
- Time series of INa blockade, Average (normalized current) ([1]; total INa, time 20 sec, drug exposure): 0.63
- Time series of INa blockade, Average (normalized current) ([1]; total INa, time 25 sec, drug exposure): 0.63
- Time series of INa blockade, Average (normalized current) ([1]; total INa, time 30 sec, recovery): 0.99
- Time series of INa blockade, Average (normalized current) ([1]; total INa, time 35 sec, recovery): 1.01
- Time series of INa blockade, Average (normalized current) ([1]; total INa, time 40 sec, recovery): 1.01
- Hill coefficient [2]: 0.67 ± 0.088
- Reversibility of inhibition after drug washout [2]: fully reversible
- Dose response curves' data, Average (fractional current) ([2]; drug at 0.01 mM): 0.82
- Dose response curves' data, Average (fractional current) ([2]; drug at 0.1 mM): 0.78
- Dose response curves' data, Average (fractional current) ([2]; drug at 0.3 mM): 0.55
- Dose response curves' data, Average (fractional current) ([2]; drug at 1 mM): 0.38
- Dose response curves' data, Average (fractional current) ([2]; drug at 3 mM): 0.26
- Dose response curves' data, Average (fractional current) ([2]; drug at 10 mM): 0.06
- Dose response curves' data, Average (fractional current) ([2]; drug at 30 mM): 0.00
- IC50 ([2]; holding −110 mV, test +20 mV, read-out: IC50): 440 ± 87 µM
- Time series of INa blockade, Average (normalized current) ([2]; time 15 sec, drug exposure): 0.700
- Time series of INa blockade, Average (normalized current) ([2]; time 20 sec, drug exposure): 0.688
- Time series of INa blockade, Average (normalized current) ([2]; time 25 sec, drug exposure): 0.698
- Time series of INa blockade, Average (normalized current) ([2]; time 30 sec, recovery): 0.954
- Time series of INa blockade, Average (normalized current) ([2]; time 35 sec, recovery): 0.981
- Time series of INa blockade, Average (normalized current) ([2]; time 40 sec, recovery): 1.000
- Max slope-act [3]: 5.4 ± 0.55 (n = 5) mV/e-fold
- V1/2-act [3]: −15.6 ± 1.87 (n = 5) ns mV
- Max slope-act in individual cells ([3]; individual cells): 3.305 mV/efold and 5.718 mV/efold and 5.241 mV/efold and 6.129 mV/efold and 6.443 mV/efold
- V1/2-act in individual cells ([3]; individual cells): -10.84 mV and -17.68 mV and -19.58 mV and -11.29 mV and -18.64 mV
- Max slope-act [4]: 7.6 ± 0.84 (n = 9) mV/e-fold
- V1/2-act [4]: −15.3 ± 3.51 (n = 9) ns mV
- Max slope-act in individual cells ([4]; individual cells): 2.416 mV/efold and 6.095 mV/efold and 7.402 mV/efold and 6.184 mV/efold and 9.974 mV/efold and 8.405 mV/efold and 10.98 mV/efold and 7.92 mV/efold and 8.84 mV/efold
- V1/2-act in individual cells ([4]; individual cells): 2.959 mV and -9.166 mV and -6.571 mV and -19.84 mV and -6.716 mV and -25.02 mV and -21.81 mV and -25.87 mV and -25.3 mV
- Shift of the steady-state inactivation curve, on average ([5]; 100-ms conditioning pulse): −5 mV
- Max slope-inact [5]: −10.2 ± 0.50 (n = 6) ns mV/e-fold
- V1/2-inact [5]: −50.6 ± 3.04 (n = 6) mV
- Max slope-inact in individual cells ([5]; individual cells): -10.01 mV/efold and -11.35 mV/efold and -9.163 mV/efold and -11.45 mV/efold and -10.7 mV/efold
- V1/2-inact in individual cells ([5]; individual cells): -42.62 mV and -59.61 mV and -54.7 mV and -48.47 mV and -56.32 mV
- Shift of the steady-state inactivation curve, on average ([6]; 100-ms conditioning pulse): −4 mV
- Max slope-inact [6]: −7.2 ± 1.24 (n = 9) ns mV/e-fold
- V1/2-inact [6]: −32.6 ± 2.86 (n = 9) mV
- Max slope-inact in individual cells ([6]; individual cells): -4.454 mV/efold and -5.078 mV/efold and -4.311 mV/efold and -4.855 mV/efold and -12.65 mV/efold and -5.321 mV/efold and -10.59 mV/efold and -13.14 mV/efold and -5.017 mV/efold
- V1/2-inact in individual cells ([6]; individual cells): -13.3 mV and -32.45 mV and -43.07 mV and -41.77 mV and -33.88 mV and -29.54 mV and -30.3 mV and -34.82 mV and -34 mV
- Fractional inhibition, 2 Hz, 1st pulse [7]: 0.46 ± 0.034 (n = 7)
- Fractional inhibition, 2 Hz, 20th pulse [7]: 0.54 ± 0.044 (n = 7)
- Fractional inhibition, 5 Hz, 1st pulse [7]: 0.47 ± 0.021 (n = 5)
- Fractional inhibition, 5 Hz, 20th pulse [7]: 0.81 ± 0.055 (n = 5)
- Fractional current after blockade, 2 Hz, 1st pulse, individual cells ([7]; individual cells): 0.42 and 0.6 and 0.65 and 0.46 and 0.55 and 0.48 and 0.66
- Fractional current after blockade, 2 Hz, 20th pulse, individual cells ([7]; individual cells): 0.57 and 0.34 and 0.45 and 0.42 and 0.58 and 0.31 and 0.51
- Fractional current after blockade, 5 Hz, 1st pulse, individual cells ([7]; individual cells): 0.73 and 0.48 and 0.51 (2×) and 0.60
- Fractional current after blockade, 5 Hz, 20th pulse, individual cells ([7]; individual cells): 0.53 and 0.06 and 0.07 and 0.25 and 0.26
- Fractional inhibition, 2 Hz, 1st pulse [8]: 0.40 ± 0.025 (n = 8)
- Fractional inhibition, 2 Hz, 20th pulse [8]: 0.55 ± 0.040 (n = 8)
- Fractional inhibition, 5 Hz, 1st pulse [8]: 0.37 ± 0.027 (n = 7)
- Fractional inhibition, 5 Hz, 20th pulse [8]: 0.64 ± 0.054 (n = 7)
- Fractional current after blockade, 2 Hz, 1st pulse, individual cells ([8]; individual cells): 0.58 and 0.49 and 0.64 and 0.53 and 0.56 and 0.59 and 0.67 and 0.68
- Fractional current after blockade, 2 Hz, 20th pulse, individual cells ([8]; individual cells): 0.3 (2×) and 0.5 and 0.51 and 0.46 and 0.57 and 0.50 and 0.41
- Fractional current after blockade, 5 Hz, 1st pulse, individual cells ([8]; individual cells): 0.55 and 0.51 and 0.68 (2×) and 0.62 and 0.69
- Fractional current after blockade, 5 Hz, 20th pulse, individual cells ([8]; individual cells): 0.18 and 0.15 and 0.34 and 0.50 and 0.42
- Fast inactivation entry time constant ([9]; EUG 2 mM, LID 1 mM): 25.04 ± 10.996 ms
- Fractional current when P1 = 2 m ([9]; EUG 2 mM, LID 1 mM): 0.62 ± 0.067
- Percent fast component (slow inactivation entry) ([9]; EUG 2 mM, LID 1 mM): 59.86 ± 4.320 %
- Slow inactivation entry time constant ([9]; EUG 2 mM, LID 1 mM): 292.87 ± 117.879 s
- Slow inactivation state entry kinetics of INa, individual cells [9, 15]: 84.13 and 39.12 and 7.878 and 39.45 and 54.65
- Fast inactivation entry time constant ([10]; EUG 2 mM, LID 1 mM): 33.05 ± 11.57 ms
- Fractional current when P1 = 2 m ([10]; EUG 2 mM, LID 1 mM): 0.76 ± 0.049
- Percent fast component (slow inactivation entry) ([10]; EUG 2 mM, LID 1 mM): 35.03 ± 6.913%
- Slow inactivation entry time constant ([10]; EUG 2 mM, LID 1 mM): 287.01 ± 49.765 s
- Slow inactivation state entry kinetics of INa, individual cells [10, 15]: 210.90 and 156.80 and 90.580 and 123.40 and 113.30
- Inhibition of persistent total INa after 50-ms depolarization [11]: fails to inhibit
- Effect on inactivation time constants [12]: unaffected
- Effect on inactivation time constants [13]: unaffected
- Shift of the available curve (VGSCs): 10 mV
- Time constant of the inhibiting effect increase with P1 duration at −70 mV [14]: 709 ms and ~700 ms
